Test results taken from PMC8550792, “Evolution of kinase polypharmacology across HSP90 drug discovery” (Cell Chemical Biology, 2021).

Assays:
Test in all cases: biochemical
Format in all cases: biochemical
[1] = biological target: T1, 382 unique human kinases (Homo sapiens, UniProt Q14289); conditions: PYK2, 10 uM; for remaining activity at 10 µM: read-out: % Enzyme Activity (relative to DMSO controls)
T1 construct: purchased Reaction Biology (HotSpot contract assay)

[2] = biological target: T2, 382 unique human kinases (Homo sapiens, UniProt Q9H3Y6); conditions: SRMS, compound at 10 uM, duplicate values; for remaining activity at 10 µM: read-out: % Enzyme Activity (relative to DMSO controls)
T2 construct: purchased Reaction Biology (HotSpot contract assay)

[3] = biological target: T3, 382 unique human kinases (Homo sapiens, UniProt P10721, V560G); conditions: c-Kit (V560G), [ATP] 20 µM, compound 10 uM; for remaining activity at 10 µM: read-out: % Enzyme Activity (relative to DMSO controls)
T3 construct: purchased Reaction Biology (HotSpot contract assay)

[4] = biological target: T4, 382 unique human kinases (Homo sapiens, UniProt P21802, V564F); conditions: FGFR2 (V564F), [ATP] 30 µM, compound 10 uM; for remaining activity at 10 µM: read-out: % Enzyme Activity (relative to DMSO controls)
T4 construct: purchased Reaction Biology (HotSpot contract assay)

[5] = biological target: T5, 382 unique human kinases (Homo sapiens, UniProt Q09013); conditions: DMPK, 10 uM; for remaining activity at 10 µM: read-out: % Enzyme Activity (relative to DMSO controls)
T5 construct: purchased Reaction Biology (HotSpot contract assay)
T5 sequence (Q09013 1-629): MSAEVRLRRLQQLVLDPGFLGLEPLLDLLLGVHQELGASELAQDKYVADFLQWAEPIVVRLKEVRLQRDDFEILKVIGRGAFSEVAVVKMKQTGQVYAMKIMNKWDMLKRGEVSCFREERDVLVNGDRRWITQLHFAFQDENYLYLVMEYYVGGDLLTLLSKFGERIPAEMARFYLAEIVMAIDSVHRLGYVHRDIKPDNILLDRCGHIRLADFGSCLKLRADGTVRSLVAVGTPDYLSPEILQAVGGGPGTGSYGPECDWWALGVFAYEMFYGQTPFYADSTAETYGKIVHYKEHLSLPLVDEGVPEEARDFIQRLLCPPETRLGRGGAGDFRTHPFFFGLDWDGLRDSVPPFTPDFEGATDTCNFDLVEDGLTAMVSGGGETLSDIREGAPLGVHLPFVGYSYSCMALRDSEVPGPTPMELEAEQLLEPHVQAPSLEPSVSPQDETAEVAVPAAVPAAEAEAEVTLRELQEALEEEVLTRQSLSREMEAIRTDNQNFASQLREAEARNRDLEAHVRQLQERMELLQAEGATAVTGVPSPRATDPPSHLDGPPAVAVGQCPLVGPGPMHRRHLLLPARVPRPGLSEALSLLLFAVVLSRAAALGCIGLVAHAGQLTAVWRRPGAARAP

[6] = biological target: T6, 382 unique human kinases (Homo sapiens, UniProt Q13153); conditions: PAK1, 10 uM; for remaining activity at 10 µM: read-out: % Enzyme Activity (relative to DMSO controls)
T6 construct: purchased Reaction Biology (HotSpot contract assay)

[7] = biological target: T7, 382 unique human kinases (Homo sapiens, UniProt Q96BR1); conditions: SGK3/SGKL, 10 uM; for remaining activity at 10 µM: read-out: % Enzyme Activity (relative to DMSO controls)
T7 construct: purchased Reaction Biology (HotSpot contract assay)
T7 sequence (Q96BR1 1-496): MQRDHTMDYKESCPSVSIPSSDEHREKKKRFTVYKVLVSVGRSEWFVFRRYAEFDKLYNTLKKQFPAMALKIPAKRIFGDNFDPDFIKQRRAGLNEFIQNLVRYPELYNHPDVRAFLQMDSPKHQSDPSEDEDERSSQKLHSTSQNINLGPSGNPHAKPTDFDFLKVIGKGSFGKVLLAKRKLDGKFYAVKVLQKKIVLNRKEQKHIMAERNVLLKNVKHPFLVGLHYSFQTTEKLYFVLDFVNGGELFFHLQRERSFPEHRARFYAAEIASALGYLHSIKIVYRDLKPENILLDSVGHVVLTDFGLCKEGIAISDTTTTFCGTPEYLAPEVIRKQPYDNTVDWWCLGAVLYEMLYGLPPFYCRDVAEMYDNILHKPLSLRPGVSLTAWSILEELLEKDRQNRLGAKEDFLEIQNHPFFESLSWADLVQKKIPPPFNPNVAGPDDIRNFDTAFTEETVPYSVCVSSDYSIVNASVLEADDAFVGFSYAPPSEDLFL

[8] = biological target: T8, 382 unique human kinases (Homo sapiens, UniProt Q96PY6); conditions: NEK1, 10 uM; for remaining activity at 10 µM: read-out: % Enzyme Activity (relative to DMSO controls)
T8 construct: purchased Reaction Biology (HotSpot contract assay)
T8 sequence (Q96PY6 1-1258): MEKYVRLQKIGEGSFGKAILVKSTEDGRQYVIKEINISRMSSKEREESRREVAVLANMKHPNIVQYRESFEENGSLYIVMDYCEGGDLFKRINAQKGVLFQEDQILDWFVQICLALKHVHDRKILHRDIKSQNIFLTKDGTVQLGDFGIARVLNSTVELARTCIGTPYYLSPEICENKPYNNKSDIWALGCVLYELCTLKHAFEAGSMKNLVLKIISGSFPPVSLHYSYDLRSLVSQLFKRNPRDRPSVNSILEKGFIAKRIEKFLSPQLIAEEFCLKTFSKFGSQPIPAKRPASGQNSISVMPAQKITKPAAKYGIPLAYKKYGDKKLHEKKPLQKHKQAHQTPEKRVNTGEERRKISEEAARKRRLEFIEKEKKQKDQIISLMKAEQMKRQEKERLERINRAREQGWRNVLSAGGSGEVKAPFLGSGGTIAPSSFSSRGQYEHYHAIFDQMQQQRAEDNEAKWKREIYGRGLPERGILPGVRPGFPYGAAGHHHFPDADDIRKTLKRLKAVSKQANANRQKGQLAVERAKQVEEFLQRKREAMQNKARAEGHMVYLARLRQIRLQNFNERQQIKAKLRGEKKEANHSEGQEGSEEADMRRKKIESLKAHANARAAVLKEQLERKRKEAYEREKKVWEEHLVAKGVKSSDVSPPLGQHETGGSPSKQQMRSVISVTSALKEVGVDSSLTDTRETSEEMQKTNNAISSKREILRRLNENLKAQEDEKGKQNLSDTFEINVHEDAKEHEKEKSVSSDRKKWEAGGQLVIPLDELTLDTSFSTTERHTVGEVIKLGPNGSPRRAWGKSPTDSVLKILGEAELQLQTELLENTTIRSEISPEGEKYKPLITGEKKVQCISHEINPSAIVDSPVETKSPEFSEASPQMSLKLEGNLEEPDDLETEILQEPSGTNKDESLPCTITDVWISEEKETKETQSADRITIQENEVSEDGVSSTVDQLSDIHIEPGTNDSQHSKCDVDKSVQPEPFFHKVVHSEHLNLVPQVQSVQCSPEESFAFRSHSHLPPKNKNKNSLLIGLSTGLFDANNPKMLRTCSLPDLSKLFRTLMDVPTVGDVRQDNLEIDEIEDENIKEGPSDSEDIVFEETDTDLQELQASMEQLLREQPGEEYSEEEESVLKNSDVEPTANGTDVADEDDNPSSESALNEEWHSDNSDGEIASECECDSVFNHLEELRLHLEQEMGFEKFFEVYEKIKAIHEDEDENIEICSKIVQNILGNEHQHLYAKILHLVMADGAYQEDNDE

T1 sequence (Q14289 whole entry): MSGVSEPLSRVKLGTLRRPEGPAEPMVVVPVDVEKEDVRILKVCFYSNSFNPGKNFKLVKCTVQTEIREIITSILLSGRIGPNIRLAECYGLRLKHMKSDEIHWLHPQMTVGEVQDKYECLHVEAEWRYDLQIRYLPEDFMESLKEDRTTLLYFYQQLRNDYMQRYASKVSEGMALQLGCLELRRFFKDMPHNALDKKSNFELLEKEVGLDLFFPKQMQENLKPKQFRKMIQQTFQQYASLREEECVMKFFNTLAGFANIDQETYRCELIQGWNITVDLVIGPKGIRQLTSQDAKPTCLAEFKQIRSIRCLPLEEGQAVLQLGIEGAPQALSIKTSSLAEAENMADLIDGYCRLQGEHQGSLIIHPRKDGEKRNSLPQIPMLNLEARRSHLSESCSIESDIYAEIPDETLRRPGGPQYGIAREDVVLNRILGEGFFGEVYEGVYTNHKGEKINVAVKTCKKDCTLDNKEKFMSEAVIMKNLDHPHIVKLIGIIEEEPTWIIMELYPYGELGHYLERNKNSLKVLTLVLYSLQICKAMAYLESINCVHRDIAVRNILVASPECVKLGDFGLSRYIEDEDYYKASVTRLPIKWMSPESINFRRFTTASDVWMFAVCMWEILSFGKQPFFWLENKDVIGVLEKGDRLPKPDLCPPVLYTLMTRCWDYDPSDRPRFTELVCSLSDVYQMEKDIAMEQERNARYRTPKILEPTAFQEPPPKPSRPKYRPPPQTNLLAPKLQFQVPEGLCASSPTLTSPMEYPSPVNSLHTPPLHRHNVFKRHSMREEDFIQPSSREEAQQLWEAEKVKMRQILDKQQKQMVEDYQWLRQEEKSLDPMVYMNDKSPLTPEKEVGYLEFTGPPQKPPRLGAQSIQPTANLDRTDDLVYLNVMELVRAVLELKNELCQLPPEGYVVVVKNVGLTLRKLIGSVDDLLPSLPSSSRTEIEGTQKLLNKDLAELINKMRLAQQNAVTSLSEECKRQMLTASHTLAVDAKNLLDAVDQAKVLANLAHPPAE
T4 sequence (P21802 22-821 V564F): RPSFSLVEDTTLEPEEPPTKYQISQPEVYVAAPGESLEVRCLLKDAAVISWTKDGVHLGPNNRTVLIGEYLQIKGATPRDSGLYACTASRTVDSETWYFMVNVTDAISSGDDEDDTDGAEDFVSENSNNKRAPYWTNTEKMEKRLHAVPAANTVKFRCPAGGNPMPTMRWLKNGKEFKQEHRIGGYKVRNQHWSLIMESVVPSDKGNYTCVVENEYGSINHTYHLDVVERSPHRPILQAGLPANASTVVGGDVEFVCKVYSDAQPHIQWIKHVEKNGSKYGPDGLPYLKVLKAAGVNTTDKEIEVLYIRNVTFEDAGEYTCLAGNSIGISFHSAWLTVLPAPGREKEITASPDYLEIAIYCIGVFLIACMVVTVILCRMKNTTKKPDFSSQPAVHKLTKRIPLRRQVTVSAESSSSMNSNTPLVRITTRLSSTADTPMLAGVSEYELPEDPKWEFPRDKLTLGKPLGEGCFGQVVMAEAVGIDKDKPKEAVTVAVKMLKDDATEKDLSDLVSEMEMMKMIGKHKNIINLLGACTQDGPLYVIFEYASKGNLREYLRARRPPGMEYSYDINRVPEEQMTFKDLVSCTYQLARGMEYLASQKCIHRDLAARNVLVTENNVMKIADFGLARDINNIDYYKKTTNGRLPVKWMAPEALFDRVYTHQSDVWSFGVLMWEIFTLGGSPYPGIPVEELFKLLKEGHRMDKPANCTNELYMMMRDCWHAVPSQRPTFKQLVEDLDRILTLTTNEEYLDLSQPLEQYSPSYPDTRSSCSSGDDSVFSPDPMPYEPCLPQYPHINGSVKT
T2 sequence (Q9H3Y6 whole entry): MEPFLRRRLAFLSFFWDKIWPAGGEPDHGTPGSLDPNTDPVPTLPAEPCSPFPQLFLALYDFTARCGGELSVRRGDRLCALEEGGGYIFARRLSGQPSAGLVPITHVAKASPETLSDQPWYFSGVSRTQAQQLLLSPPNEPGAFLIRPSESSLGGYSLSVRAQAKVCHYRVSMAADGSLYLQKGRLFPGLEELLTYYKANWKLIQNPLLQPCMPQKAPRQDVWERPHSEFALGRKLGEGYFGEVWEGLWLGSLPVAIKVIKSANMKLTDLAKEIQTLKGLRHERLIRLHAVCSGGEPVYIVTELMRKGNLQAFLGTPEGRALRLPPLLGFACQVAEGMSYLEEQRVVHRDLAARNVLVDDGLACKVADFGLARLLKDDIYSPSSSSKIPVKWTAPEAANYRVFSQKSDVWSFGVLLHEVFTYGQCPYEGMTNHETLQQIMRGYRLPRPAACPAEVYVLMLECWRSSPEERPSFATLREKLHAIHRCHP
T6 sequence (Q13153 whole entry): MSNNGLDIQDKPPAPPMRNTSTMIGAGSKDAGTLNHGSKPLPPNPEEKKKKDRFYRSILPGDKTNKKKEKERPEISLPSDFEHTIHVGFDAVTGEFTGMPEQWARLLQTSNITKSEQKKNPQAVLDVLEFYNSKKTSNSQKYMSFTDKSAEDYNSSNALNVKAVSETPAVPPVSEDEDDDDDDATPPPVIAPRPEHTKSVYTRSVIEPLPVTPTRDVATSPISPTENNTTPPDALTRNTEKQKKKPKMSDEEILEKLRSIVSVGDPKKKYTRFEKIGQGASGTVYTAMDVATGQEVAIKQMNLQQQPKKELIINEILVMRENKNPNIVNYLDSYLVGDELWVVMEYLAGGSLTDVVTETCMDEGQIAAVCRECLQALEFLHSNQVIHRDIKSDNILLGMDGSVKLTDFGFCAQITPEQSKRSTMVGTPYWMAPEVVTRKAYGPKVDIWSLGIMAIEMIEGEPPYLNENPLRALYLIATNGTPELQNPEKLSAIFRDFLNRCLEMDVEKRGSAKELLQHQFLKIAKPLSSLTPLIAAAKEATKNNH
T3 sequence (P10721 26-976 V560G): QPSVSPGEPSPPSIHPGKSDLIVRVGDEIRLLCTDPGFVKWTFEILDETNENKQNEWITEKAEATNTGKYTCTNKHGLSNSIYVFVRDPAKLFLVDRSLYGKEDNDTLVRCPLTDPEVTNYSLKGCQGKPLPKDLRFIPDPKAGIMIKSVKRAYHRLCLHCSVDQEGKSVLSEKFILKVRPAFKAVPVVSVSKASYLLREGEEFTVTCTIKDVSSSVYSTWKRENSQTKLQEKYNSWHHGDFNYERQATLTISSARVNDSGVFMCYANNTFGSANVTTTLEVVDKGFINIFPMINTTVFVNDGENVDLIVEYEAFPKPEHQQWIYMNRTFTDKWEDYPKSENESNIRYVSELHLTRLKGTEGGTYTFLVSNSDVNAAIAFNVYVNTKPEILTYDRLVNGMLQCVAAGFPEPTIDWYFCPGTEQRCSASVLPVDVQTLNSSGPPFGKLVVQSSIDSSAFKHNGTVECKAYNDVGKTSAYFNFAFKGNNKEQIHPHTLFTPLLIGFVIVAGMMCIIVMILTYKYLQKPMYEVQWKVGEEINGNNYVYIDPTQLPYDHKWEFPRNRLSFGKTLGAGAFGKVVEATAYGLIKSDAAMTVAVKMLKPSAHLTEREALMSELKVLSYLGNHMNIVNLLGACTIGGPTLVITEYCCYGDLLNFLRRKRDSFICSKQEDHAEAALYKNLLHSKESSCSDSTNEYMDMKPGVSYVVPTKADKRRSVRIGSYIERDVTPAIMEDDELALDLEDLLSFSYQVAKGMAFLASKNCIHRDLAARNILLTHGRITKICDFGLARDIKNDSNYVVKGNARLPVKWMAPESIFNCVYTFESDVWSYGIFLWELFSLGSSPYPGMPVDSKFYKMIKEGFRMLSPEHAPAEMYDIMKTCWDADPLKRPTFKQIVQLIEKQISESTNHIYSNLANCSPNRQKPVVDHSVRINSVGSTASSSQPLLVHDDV

SMILES: CC(C)c1cc(-c2n[nH]c(=O)n2-c2ccc3c(ccn3C)c2)c(O)cc1O [Ganetespib (STA9090)]
- remaining activity at 10 µM [1]: 78.5%
- remaining activity at 10 µM [2]: 109%

SMILES: CC(C)c1cc(-c2n[nH]c(=O)n2-c2ccc3c(ccn3C)c2)c(O)cc1O [Ganetespib]
- remaining activity at 10 µM [3]: 58.9%
- remaining activity at 10 µM [4]: 41.2%
- remaining activity at 10 µM [5]: 110%
- remaining activity at 10 µM [6]: 97.2%
- remaining activity at 10 µM [7]: 101%
- remaining activity at 10 µM [8]: 95.7%

SMILES: CCNC(=O)c1noc(-c2cc(C(C)C)c(O)cc2O)c1-c1ccc(CN2CCOCC2)cc1 [Luminespib (AUY-922)]
- % Enzyme Activity (relative to DMSO controls) [1]: 97.56%
- remaining activity at 10 µM [1]: 98.8%
- % Enzyme Activity (relative to DMSO controls) [2]: 110.03%
- remaining activity at 10 µM [2]: 111%

SMILES: CCNC(=O)c1noc(-c2cc(C(C)C)c(O)cc2O)c1-c1ccc(CN2CCOCC2)cc1 [Luminespib]
- % Enzyme Activity (relative to DMSO controls) [3]: 109.32%
- remaining activity at 10 µM [3]: 111%
- % Enzyme Activity (relative to DMSO controls) [4]: 98.77%
- remaining activity at 10 µM [4]: 99.4%
- % Enzyme Activity (relative to DMSO controls) [5]: 99.26%
- remaining activity at 10 µM [5]: 100%
- % Enzyme Activity (relative to DMSO controls) [6]: 101.44%
- remaining activity at 10 µM [6]: 102%
- % Enzyme Activity (relative to DMSO controls) [7]: 105.88%
- remaining activity at 10 µM [7]: 106%
- % Enzyme Activity (relative to DMSO controls) [8]: 102.76%
- remaining activity at 10 µM [8]: 110%
